Blank lines part the entries; values can stand above or below the molecule they belong to. Where a SMILES comes first, the peptide text is derived from it. [ ]: non-standard residue; d: D form. pT = C[C@@H](OP(=O)(O)O)[C@H](N)C(=O)O; 2Nal = N[C@@H](Cc1ccc2ccccc2c1)C(=O)O; Bta = N[C@@H](Cc1csc2ccccc12)C(=O)O; Pip = O=C(O)[C@@H]1CCCCN1
Experiments:
Pin1 [1] = target: T1, Pin1 (Homo sapiens, UniProt Q13526); assay: single-step fluorescence polarization-based displacement assay (FP-HTS); format: binding
T1 construct: We performed FP-HTS in a 384-well plate format with full length Pin1
Protocol: We used the FP-HTS with a 5 nM probe and 200 nM Pin1 to conduct a pilot screen on a selected set of chemical libraries.

Pin1 [2] = target: T1, Pin1; assay: PPIase assay; format: biochemical; settings: dose-dependent manner
Protocol: (§1) We used the FP-HTS with a 5 nM probe and 200 nM Pin1 to conduct a pilot screen on a selected set of chemical libraries. We obtained the resulting potential positive hits and grouped them into 3 classes according to the Z-score, which is folds of standard deviation below the mean. […] 1) cis-RA is not listed in promiscuous inhibitor databases 2) all-trans retinoic acid (trans-RA), the pairing compound of cis-RA, is currently used as oral prescription for patients with acute promyelocytic leukemia […]; 3) both cis-RA and trans-RAs are used as a medication in the phase II/III clinical trial for breast cancer, and more because of its ability to kill rapidly dividing cells; and 4) although it has been reported that RAs target on retinoic acid receptor (RAR), the exact mechanism of the anticancer action is unknown. As a result, we examined whether the anti-cancer effect of RAs depends on RAR in the breast cancer cells. […] In the PPIase assay, Pin1 activity was blocked by either cis- or trans-RA in a dose-dependent manner (FIG. 4).

Pin1 [3] = target: T1, Pin1; assay: Pin1 inhibition by retinoids in a cell culture model; format: cell-based
Protocol: As trans-RA is selected as the current lead compound, it is important to identify the essential moiety of RAs on Pin1 interaction for further lead optimization. Many commercially available retinoids were tested for Pin1 inhibition. […] Other RA compounds that are metabolized to contain an end carboxylic group are also likely to be useful in treating proliferative disorders (FIG. 10D). In addition, compounds that modulate the retinoic acid receptor (FIGS. 10D and 11A and compounds listed in Table 1) are also likely to be useful in treating proliferative disorders.

Pin1 and DAPK1 = Pin1 and DAPK1 (Homo sapiens, UniProt Q13526); assay: association between Pin1 and DAPK1 (competition); format: binding; settings: dose-dependent manner, trans being more potent
MCF10A = assay: cell viability; format: cell-based; settings: normal cell line MCF10A
Description: (§2) This discrepancy between cell lines was correlated with the RAs' ability to suppress Pin1 expression. Pin1 level was decreased by treatment of RAs in drugs-responsive SKBR3 and T47D, but not in drugs-irresponsive normal cells, MCF10A (FIG. 7B), in which Pin1 target protein, cyclin D1, was served as biomarkers of in vivo Pin1 activity. […] To further confirm this premise, wild-type mouse embryonic fibroblast (WT MEF) and Pin1 knockout MEF (Pin1 KO MEF) were used to test trans-RA-mediated cell viability (FIGS. 9A-C). […] In addition, Pin1 KO MEF stably expressing WT Pin1, but not W34/K63A Pin1 mutant, enabled cells to re-sensitize trans-RA.

T47D = assay: cell viability; format: cell-based
Description: as §2

SKBR3 = assay: cell viability; format: cell-based, human
Description: as §2

WT MEF and Pin1 KO MEF = assay: trans-RA-mediated cell viability in MEF; format: cell-based, mouse
Description: as §2

[4] = test system: Pin1 K63A, S67E, R68/69A, H59A or S71E; assay: trans-RA binding to Pin1 point mutants; settings: point mutations K63A
Protocol: as §1

breast cancer cells = assay: cis-RA-mediated cell death with RARα knockdown; format: cell-based

T1 sequence (Q13526 whole entry): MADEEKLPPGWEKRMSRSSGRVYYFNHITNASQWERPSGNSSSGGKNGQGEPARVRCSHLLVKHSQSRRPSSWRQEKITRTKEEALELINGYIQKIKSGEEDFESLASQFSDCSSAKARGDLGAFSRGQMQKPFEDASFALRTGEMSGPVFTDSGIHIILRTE
Chain of Pin1 and DAPK1 (Q13526 whole entry): as above

Compound: C[C@@H](OP(=O)(O)O)[C@H](NC(=O)[C@@H](N)Cc1csc2ccccc12)C(=O)N1CCCC[C@H]1C(=O)N[C@@H](Cc1ccc2ccccc2c1)C(=O)O [pTide, Bth-L-phos.Thr-Pip-Nal] (H-[Bta][pT][Pip][2Nal]-OH; N-terminus and C-terminus assumed)
- displacement of HF488 probe from Pin1 (Pin1 [1]): displaced

Compound: COc1cc(C)c(/C=C/C(C)=C/C=C/C(C)=C/C(=O)O)c(C)c1C [acitretin]
- Pin1 inhibition (Pin1 [3]): maintained Pin1 inhibition

Compound: CCCCCCCCc1ccc(-c2ccc(C(=O)O)cc2)cc1 [AC-55649]
- Pin1 inhibition (Pin1 [3]): maintained Pin1 inhibition

Continued, in another order:

- Pin1 activity (Pin1 [2]): blocked
- Pin1 inhibition (Pin1 [3]): maintained Pin1 inhibition
- association between Pin1 and DAPK1 (Pin1 and DAPK1): blocked
- IC50 (cell viability) (T47D): nano-molar range
- IC50 (cell viability) (SKBR3): nano-molar range
- trans-RA binding to Pin1 [4]: completely or significantly abolished
Compound: CC1=C(/C=C/C(C)=C/C=C/C(C)=C/C(=O)O)C(C)(C)CCC1 [trans-RA, (2E,4E,6E,8E)-3,7-dimethyl-9-(2,6,6-trimethylcyclohexen-1-yl)nona-2,4,6,8-tetraenoic acid]
- cell viability (MCF10A): remained unaffected
- Pin1 inhibition in the FP assay (Pin1 [1]; compared with cis-RA): more prominent Pin1 inhibition than cis-RA
- cell viability (WT MEF and Pin1 KO MEF; Pin1 KO MEF compared with WT MEF): more resistant
- cell viability (WT MEF and Pin1 KO MEF; Pin1 KO MEF stably expressing WT Pin1): re-sensitize

- Pin1 activity (Pin1 [2]): blocked
- Pin1 inhibition (Pin1 [3]): maintained Pin1 inhibition
- association between Pin1 and DAPK1 (Pin1 and DAPK1): blocked
- IC50 (cell viability) (T47D): nano-molar range
- IC50 (cell viability) (SKBR3): nano-molar range
- pilot screen hit class according to Z-score (Pin1 [1]; 5 nM probe and 200 nM Pin1): top strong chemical
- Pin1 inhibition in the FP assay (Pin1 [1]; long-term incubation with Pin1): eventually catch up with trans-RA
Compound: CC1=C(/C=C/C(C)=C/C=C/C(C)=C\C(=O)O)C(C)(C)CCC1 [cis-RA, (2Z,4E,6E,8E)-3,7-dimethyl-9-(2,6,6-trimethylcyclohexen-1-yl)nona-2,4,6,8-tetraenoic acid]
- cell viability (MCF10A): remained unaffected
- rescue of cis-RA-mediated cell death (breast cancer cells): only partially rescue

— US10265288B2, “Methods and compositions for the treatment of proliferative disorders” (Beth Israel Deaconess Medical Center, Inc., priority 2011, dated 2019)
